Test results from patent publication US8034353B2, “Peptide vaccine for inducing the production of anti-amyloid β-peptide antibody” (priority 2006, dated 2011).
Read-outs that look alike come from different tables or passages of the source.

Columns and labels:
T-cell [1] = assay type: cell-based, mice
T-cell [2] = assay type: cell-based, human
Aβ (SEQ ID NO:2) = experiment: Anti-Aβ antibody titer in serum of transnasally vaccinated mice, ELISA (Experiment 1); assay type: in vivo, BALB/c female mice; conditions: BALB/c mice, transnasal 50 μg/mouse/once, four times at two weeks interval, serum one week after last administration
From the text: The results are in Table 1.

Substance	Induction of blastogenesis of the T-cell (T-cell [1])	Induction of blastogenesis of the T-cell (T-cell [2])	Antibody titer Anti-Aβ antibody (Aβ (SEQ ID NO:2))
AYNFVESIINLFQVVHNSYN (diphtheria toxoid (partial sequence)) [DTL]	inducing the blastogenesis of the T-cell	inducing the blastogenesis of the T-cell	–
QYIVNEDKFQILYNSIMYGF (tetanus toxoid (partial sequence)) [TetT3L]	inducing the blastogenesis of the T-cell	inducing the blastogenesis of the T-cell	–
RGD-Gag-KK-Aβ(1-11): RGD motif, Gag T-cell epitope (HIV-1 Gag 298-312), KK linker, Aβ(1-11) B-cell epitope (RGDKRWIILGLNKIVRMYKKDAEFRHDSGYE; peptide for the production of anti-amyloid beta antibody)	–	–	14.9
RGD-Gag-KK-Aβ(1-13): RGD motif, Gag T-cell epitope (HIV-1 Gag 298-312), KK linker, Aβ(1-13) B-cell epitope (RGDKRWIILGLNKIVRMYKKDAEFRHDSGYEVH; peptide for the production of anti-amyloid beta antibody)	–	–	32
RGD-Gag-KK-Aβ(3-11): RGD motif, Gag T-cell epitope (HIV-1 Gag 298-312), KK linker, Aβ(3-11) B-cell epitope (RGDKRWIILGLNKIVRMYKKEFRHDSGYE; peptide for the production of anti-amyloid beta antibody)	–	–	22.6
